Assay results as given in the NIST ThermoML archive (doi:10.1016/j.jct.2011.01.008).

Tests used:
[1] = refractive index (Na D-line) (dimensionless); xn = mol fraction of the nth substance listed; conditions: 298.15 K, 96 kPa, Liquid, Standard Abbe refractometry
[2] = xn = mol fraction of the nth substance listed; conditions: 96 kPa, Liquid, Vibrating tube method

CCCCC=O [pentanal] + CCOS(=O)(=O)[O-].CCn1cc[n+](C)c1
[1]
Conditions	refractive index
x1 = 0.0792	1.4793
x1 = 0.101	1.4788
x1 = 0.2039	1.4759
x1 = 0.3008	1.4718
x1 = 0.4074	1.4672
x1 = 0.5048	1.4621
x1 = 0.6047	1.4554
x1 = 0.7012	1.4486
x1 = 0.8024	1.4403
x1 = 0.897	1.431
x1 = 0.9513	1.4231
x1 = 1	1.396

[2]
Conditions	mass density [kg/m3]
288.15 K, x1 = 0.0792	1218.05
288.15 K, x1 = 0.101	1213.67
288.15 K, x1 = 0.3008	1168.57
288.15 K, x1 = 0.4074	1139.93
288.15 K, x1 = 0.6047	1073.97
288.15 K, x1 = 0.7012	1036.82
288.15 K, x1 = 0.897	935.22
288.15 K, x1 = 0.9513	896.87
288.15 K, x1 = 1	814.15
288.16 K, x1 = 0.2039	1191.69
288.16 K, x1 = 0.5048	1109.32
288.16 K, x1 = 0.8024	990.74
293.14 K, x1 = 0.0792	1215
293.14 K, x1 = 1	809.45
293.15 K, x1 = 0.101	1210.75
293.15 K, x1 = 0.2039	1188.69
293.15 K, x1 = 0.3008	1165.47
293.15 K, x1 = 0.4074	1136.9
293.15 K, x1 = 0.5048	1106.25
293.15 K, x1 = 0.6047	1070.53
293.15 K, x1 = 0.7012	1033.26
293.15 K, x1 = 0.8024	986.74
293.15 K, x1 = 0.897	931.08
293.15 K, x1 = 0.9513	892.5
298.14 K, x1 = 0.0792	1211.93
298.14 K, x1 = 0.101	1207.59
298.14 K, x1 = 0.2039	1185.49
298.14 K, x1 = 0.3008	1162.15
298.14 K, x1 = 0.4074	1133.5
298.14 K, x1 = 0.5048	1102.7
298.14 K, x1 = 0.6047	1066.69
298.14 K, x1 = 0.7012	1029.35
298.14 K, x1 = 0.8024	982.52
298.14 K, x1 = 0.897	926.62
298.14 K, x1 = 0.9513	887.82
298.14 K, x1 = 1	804.73
303.14 K, x1 = 0.101	1204.47
303.14 K, x1 = 0.2039	1182.28
303.14 K, x1 = 0.3008	1158.83
303.14 K, x1 = 0.4074	1130.07
303.14 K, x1 = 0.5048	1099.13
303.14 K, x1 = 0.6047	1062.78
303.14 K, x1 = 0.7012	1025.33
303.14 K, x1 = 0.8024	978.11
303.14 K, x1 = 0.897	921.84
303.14 K, x1 = 0.9513	882.85
303.15 K, x1 = 0.0792	1208.72
303.15 K, x1 = 1	799.97
308.14 K, x1 = 0.101	1201.4
308.14 K, x1 = 0.2039	1179.03
308.14 K, x1 = 0.4074	1126.55
308.14 K, x1 = 0.5048	1095.35
308.14 K, x1 = 0.6047	1058.77
308.14 K, x1 = 0.7012	1021.17
308.14 K, x1 = 0.897	916.87
308.14 K, x1 = 0.9513	877.74
308.15 K, x1 = 0.0792	1205.39
308.15 K, x1 = 0.3008	1155.36
308.15 K, x1 = 0.8024	973.48
308.15 K, x1 = 1	795.17
313.14 K, x1 = 0.0792	1201.93
313.14 K, x1 = 0.2039	1175.7
313.14 K, x1 = 0.4074	1122.78
313.14 K, x1 = 0.5048	1091.33
313.14 K, x1 = 0.6047	1054.63
313.14 K, x1 = 0.7012	1016.96
313.14 K, x1 = 0.897	911.86
313.14 K, x1 = 0.9513	872.76
313.14 K, x1 = 1	790.33
313.15 K, x1 = 0.101	1198.11
313.15 K, x1 = 0.3008	1151.83
313.15 K, x1 = 0.8024	966.65
318.14 K, x1 = 0.0792	1198.39
318.14 K, x1 = 0.2039	1172.28
318.14 K, x1 = 0.5048	1087.33
318.14 K, x1 = 0.6047	1050.4
318.14 K, x1 = 0.7012	1012.64
318.14 K, x1 = 0.8024	962.44
318.14 K, x1 = 0.897	906.82
318.14 K, x1 = 0.9513	867.68
318.14 K, x1 = 1	785.46
318.15 K, x1 = 0.101	1194.8
318.15 K, x1 = 0.3008	1148.23
318.15 K, x1 = 0.4074	1119.06
323.14 K, x1 = 0.0792	1195.73
323.14 K, x1 = 0.2039	1168.79
323.14 K, x1 = 0.5048	1083.27
323.14 K, x1 = 0.6047	1046.09
323.14 K, x1 = 0.8024	959.29
323.14 K, x1 = 0.9513	862.54
323.14 K, x1 = 1	780.55
323.15 K, x1 = 0.101	1191.43
323.15 K, x1 = 0.3008	1144.59
323.15 K, x1 = 0.4074	1115.15
323.15 K, x1 = 0.7012	1008.39
323.15 K, x1 = 0.897	901.88
